Experimental data: ChEMBL document CHEMBL5543136, “Discovery of Novel Heterotricyclic Compounds as DNA-Dependent Protein Kinase (DNA-PK) Inhibitors with Enhanced Chemosensitivity, Oral Bioavailability, and the Ability to Potentiate Cancer Immunotherapy” (J Med Chem, 2024)
Active and inactive are the calls of the source. The rule behind the calls is not given here.

Assays:
[1] = Clearance in male Sprague-Dawley rat at 2 mg/kg, iv measured after 48 hrs by LC-MS/MS analysis; format: ADME, organism-based; conditions: in vivo
[2] = Oral bioavailability in male Sprague-Dawley rat at 10 mg/kg measured after 48 hrs by LC-MS/MS analysis; format: ADME, organism-based; conditions: in vivo
B16-F10 [3] = test: Antitumor activity against mouse B16-F10 cells implanted in C57BL/6 mouse assessed as tumor growth inhibition at 10 mg/kg, ip administered once daily for 13 days relative to control; format: functional; conditions: B16-F10, 312 h, time 13 day, read-out: TGI
[4] = Tmax in male Sprague-Dawley rat at 10 mg/kg, po measured after 48 hrs by LC-MS/MS analysis; format: ADME, organism-based; conditions: in vivo
[5] = Toxicity in C57BL/6 mouse implanted with mouse B16-F10 cells assessed as effect on body weight at 10 mg/kg, ip administered once daily for 13 days; format: organism-based; conditions: in vivo, 312 h, time 13 day
[6] = AUC (0 to t) in male Sprague-Dawley rat at 2 mg/kg, iv measured after 48 hrs by LC-MS/MS analysis; format: ADME, organism-based; conditions: in vivo
Jurkat [7] = test: Antiproliferative activity against human Jurkat cells assessed as reduction in cell viability incubated for 48 hrs by CCK-8 assay; format: functional, cell-based
[8] = Toxicity in C57BL/6 mouse implanted with mouse B16-F10 cells assessed as effect on body weight at 10 mg/kg, ip QD co-administered with PD-L1 antibody for 13 days; format: organism-based; conditions: in vivo, 312 h, time 13 day
[9] = Apparent volume of distribution in male Sprague-Dawley rat at 10 mg/kg, po measured after 48 hrs by LC-MS/MS analysis; format: ADME, organism-based; conditions: in vivo
B16-F10 [10] = test: Antitumor activity against mouse B16-F10 cells implanted in C57BL/6 mouse assessed as tumor growth inhibition at 10 mg/kg, ip QD co-administered with PD-L1 antibody for 13 days relative to control; format: functional; conditions: B16-F10, 312 h, time 13 day, read-out: TGI
[11] = Selectivity ratio of IC50 for antiproliferative activity against mouse CT26 cells to IC50 for synergistic antiproliferative activity against mouse CT26 cells in presence of doxorubicin; format: functional
B16-F10 [12] = test: Antitumor activity against mouse B16-F10 cells implanted in C57BL/6 mouse assessed as tumor growth inhibition at 10 mg/kg, ip QD co-administered with SWS1 for 13 days relative to control; format: functional; conditions: B16-F10, 312 h, time 13 day, read-out: TGI
HepG2 = test: Inhibition of DNA damage repair in human HepG2 cells assessed as reduction in gammaH2AX fluorescence intensity by DAPI staining based immunofluorescence analysis; format: functional, cell-based; conditions: dose 10-40 µM
[13] = Tmax in male Sprague-Dawley rat at 2 mg/kg, iv measured after 48 hrs by LC-MS/MS analysis; format: ADME, organism-based; conditions: in vivo
Jurkat [14] = test: Induction of cell cycle arrest in human Jurkat cells assessed as increase in G2/M phase cells at 1 uM incubated for 24 hrs in presence of doxorubicin by PI staining based flow cytometric analysis; format: functional
[15] = Toxicity in C57BL/6 mouse implanted with mouse B16-F10 cells assessed as change in heart histopathology at 10 mg/kg, ip administered once daily for 13 days by H&E staining based analysis; format: organism-based; conditions: in vivo, 312 h, time 13 day
[16] = Toxicity in BALB/c mouse implanted with mouse CT26 cells assessed as death at 10 mg/kg, ip QD co-administered with doxorubicin for 21 days; format: organism-based; conditions: in vivo, 504 h, time 21 day
[17] = Toxicity in C57BL/6 mouse implanted with mouse B16-F10 cells assessed as change in kidney histopathology at 10 mg/kg, ip administered once daily for 13 days by H&E staining based analysis; format: organism-based; conditions: in vivo, 312 h, time 13 day
[18] = Toxicity in C57BL/6 mouse implanted with mouse B16-F10 cells assessed as change in lung histopathology at 10 mg/kg, ip administered once daily for 13 days by H&E staining based analysis; format: organism-based; conditions: in vivo, 312 h, time 13 day
[19] = Toxicity in C57BL/6 mouse implanted with mouse B16-F10 cells assessed as change in spleen histopathology at 10 mg/kg, ip administered once daily for 13 days by H&E staining based analysis; format: organism-based; conditions: in vivo, 312 h, time 13 day

Structure (SMILES): Cc1cc2cccnc2cc1Nc1ncc2c(n1)N(C1CCOCC1)Cc1nncn1-2
- clearance [1]: 55 mL/min/kg
- bioavailability [2]: 31.8%
- inhibition in vivo at 10 mg/kg (B16-F10 [3]): 35.9%
- Tmax [4]: 1.4 h
- Activity [5]: Non-Toxic
- AUC(0-t) at 48 h [6]: 604 ng·h/mL
- IC50 (Jurkat [7]): 600 nM
- Activity [8]: Non-Toxic
- Vz [9]: 38.8 L/kg
- inhibition in vivo at 10 mg/kg (B16-F10 [10]): 60.5%
- Ratio IC50 [11]: 4.5
- inhibition in vivo at 10 mg/kg (B16-F10 [12]): 63.2%
- inhibition (HepG2): Dose-Dependent Effect
- Tmax [13]: 4.98 min
- Activity (Jurkat [14]): Active
- Activity [15]: Non-Toxic
- Activity [16]: Non-Toxic
- Activity [17]: Non-Toxic
- Activity [18]: Non-Toxic
- Activity [19]: Non-Toxic
